Like-named read-outs stand apart in the source and are kept apart here.
How the values were obtained:
HIV-1 NL4-3 = test: Antiviral assay, HIV-1 NL4-3 in MT-4 cells; format: cell-based; settings: for antiviral effect when combined with EFdA: HIV-1 NL4-3 in MT-4 cells; for replication of HIV-1 NL4-3 (supernatant p24): MT-4 cells, cultured for 12 days, single drug
Description: (§1) Antiviral assays using wild type HIV-1 (HIV-1 NL4-3) cells and MT-4 cells were conducted as previously described ([Maeda et al., 2014]; [Takamatsu et al., 2015]). To determine the cytotoxicity induced by LRAs and its related compounds, cells (5 × 10^5 cells/mL) were cultured in the presence or absence of LRA. After 24 h, cytotoxicity assays were performed using a Cytotoxicity LDH Assay Kit (Dojindo, Kumamoto, Japan) according to the manufacturer’s instructions. The number of living cells with the drug was measured and compared with those without the drug, and data are shown as percentage (%) of control.
Supplementary file Data_Sheet_1.PDF: FIGURE S1 The combined effect of an RT inhibitor (EFdA/MK-8591) ([Nakata et al., 2007]; [Kawamoto et al., 2008]; [Maeda et al., 2014]) and PKC activator (PEP005) on the replication of HIV-1 NL4-3 in MT-4 cells. MT-4 cells were infected with HIV-1 NL4-3 in the presence or absence of drug(s), cultured for 12 days, and the supernatant p24 levels were measured. Click here for additional data file.

[1] = test system: PBMCs from a cART-treated HIV-1 patient; test: Cytotoxicity in PBMCs from HIV-1-infected patient (PI staining, flow cytometry); format: cell-based, human; settings: PBMCs of cART-treated HIV-1 patient, 24 h; birinapant 50 nM, PEP005 5 nM
Description: Supplementary file Data_Sheet_3.PDF: FIGURE S3 The combined effect of birinapant (50 nM) and PEP005 (5 nM) on cytotoxicity in PBMCs obtained from HIV-1-infected patients. PBMCs from a cART-treated HIV-1 patient were cultured for 24 h in the presence or absence of drug(s), and the percentage of propidium iodide (PI)^+ cells were measured by flow cytometric analysis. Click here for additional data file.

[2] = Toxicity on PHA-stimulated PBMCs from healthy donor (WST-8 assay); format: cell-based; settings: human
Description: Table S1. CC50 values on PHA-stimulated PBMCs from healthy donor
PBMCs (2 x 10^6 cells/ml) were treated with birinapant or PEP005 and cultured for 3days. Cell viability was
Table S2. Toxicity of PEP005 and birinapant in combination
Agent (concentration) % replication
PEP005 (1 µM) + birinapant (1 µM) 65.5 %
PBMCs (2 x 10^6 cells/ml) were treated with birinapant (10 nM - 10 µM) and/or PEP005 (10 nM - 100 µM)
and cultured for 3 days. Cell viability was measured by WST-8 assay.

ACH-2 cells = test: Living cell numbers of ACH-2 cells in the presence of drug(s); format: cell-based; settings: birinapant 50 nM; for cell toxicity / replication of ACH-2 cells: PEP005 5 nM (Figure 2C)
Description: FIGURE 2 (A) Effect of birinapant when combined with TNF-α. The supernatant p24 levels with birinapant (1∼100 nM) in ACH-2 cell culture on day 2 are shown in white bars, and p24 values with birinapant when combined with TNF-α (10 ng/ml) are shown in black bars. (B) HIV-1 production from ACH-2 cells when reactivated by PEP005 (0.05∼50 nM) for 24 h. (C) Changes in the living cell numbers in the presence of drug(s) on days 1, 3, and 5.

[3] = Cytotoxicity assay (Cytotoxicity LDH Assay Kit); format: cell-based; settings: human
Description: as §1, with “To” for “Antiviral assays using wild type HIV-1 (HIV-1 NL4-3) cells and MT-4 cells were conducted as previously described ([Maeda et al., 2014]; [Takamatsu et al., 2015]). To”

[4] = test system: latent HIV-1-infected U1 cells; test: HIV reactivation from latent cells: supernatant p24 antigen; format: cell-based; settings: day 2, single drug (Figure 1B)
Description: The reactivation of HIV-1 from latently infected cells was determined by the measurement of supernatant p24 antigen and intracellular HIV-1 RNA levels. ACH-2 cells or U1 cells (5 × 10^5 cells/mL) were placed in 96-well plates, and then the cells were incubated with different concentrations of drugs for 24 h to extract RNA and for 48 h to collect the supernatant. The increase in supernatant p24 antigen levels was measured using […] G1200 (Fujirebio, Tokyo, Japan). The total RNA was extracted using an RNeasy Mini Kit (Qiagen, Hilden, Germany), following the manufacturer’s protocols. The cDNA was synthesized using PrimeScript RT Master Mix (Takara Bio, Shiga, Japan), and quantitative real-time PCR analyses for the intracellular HIV-1 RNA were carried out with PowerUp^TM SYBR Green Master Mix (Applied Biosystems, Foster City, CA, United States). The oligonucleotide primers used were as follows: 5′-[…]-3′ (forward) and 5′-[…]-3′ (reverse) for HIV-RNA detection; 5′-[…]-3′ (forward) and 5′-[…]-3′ (reverse) for β-actin. The HIV-RNA expressions were normalized with that of β-actin, which was indicated as the relative quantity, and the increase in HIV-1 RNA levels in the presence of a drug was compared with that without a drug.
FIGURE 1 (A,B) The increase in viral production from ACH-2 cells (A) and U1 cells (B) was examined by supernatant p24 antigen levels on day 2. (C,D) Changes in the intracellular HIV-1 mRNA levels due to treatment with these drugs in ACH-2 cells (C) and U1 cells (D) after 24 h of incubation.

[5] = A3.01 cells, read-out: CC50 ± SD against A3.01
[6] = ACH-2 cells, read-out: CC50 ± SD against ACH-2
[7] = HL-60 cells, read-out: CC50 ± SD against HL-60
[8] = J1.1 cells, read-out: CC50 ± SD against J1.1
[9] = Jurkat cells, read-out: CC50 ± SD against Jurkat
[10] = OM10.1 cells, read-out: CC50 ± SD against OM10.1
[11] = U1 cells, read-out: CC50 ± SD against U1
[12] = U937 cells, read-out: CC50 ± SD against U937

Row | SMILES | antiviral effect when combined with EFdA (HIV-1 NL4-3) | replication of HIV-1 NL4-3 (supernatant p24) (HIV-1 NL4-3) | ratio of dead cells (PI staining) [1] | CC50 at 3 days [2] | cell toxicity / replication of ACH-2 cells (ACH-2 cells) | CC50 at 24 h [3, 5] | CC50 at 24 h [3, 6] | CC50 at 24 h [3, 7] | CC50 at 24 h [3, 8] | CC50 at 24 h [3, 9] | CC50 at 24 h [3, 10] | CC50 at 24 h [3, 11] | CC50 at 24 h [3, 12] | viral production (supernatant p24 antigen levels) [4] | CC50 at 3 days ([2]; PHA-stimulated PBMCs from healthy donor, 3 days, WST-8 assay, read-out: CC50 (µM) ± SD) | number of living cells (ACH-2 cells; day 5, PEP005 5 nM)
1 | CC[C@H](NC(=O)[C@H](C)NC)C(=O)N1C[C@@H](O)C[C@H]1Cc1c(-c2[nH]c3cc(F)ccc3c2C[C@@H]2C[C@H](O)CN2C(=O)[C@H](CC)NC(=O)[C@H](C)NC)[nH]c2cc(F)ccc12 [Birinapant] | no additive/synergistic antiviral effect | little to no effect on viral replication | slightly increased the ratio of dead cells | 10.7 ± 0.2 µM | failed to show cell toxicity | 0.2 ± 0.08 µM | > 100 µM | > 100 µM | 48 ± 0.9 µM | 13 ± 0.1 µM | 53 ± 8 µM | > 100 µM | > 100 µM | only had a minor effect on HIV-1 reactivation | – | –
2 | C/C=C(/C)C(=O)O[C@H]1C(C)=C[C@]23C(=O)[C@@H](C=C(CO)[C@@H](O)[C@]12O)[C@H]1[C@@H](C[C@H]3C)C1(C)C [PEP005, ingenol-3-angelate] | no additive/synergistic antiviral effect | little to no effect on viral replication | failed to increase the number of dead cells | – | strongly inhibited the replication of ACH-2 cells | 47 ± 9 µM | 19 ± 0.4 µM | > 100 µM | 44 ± 2 µM | 16 ± 3 µM | 84 ± 6 µM | > 100 µM | > 100 µM | increased viral production | > 100 µM | 370000 mL⁻¹

From article PMC6156138, “Combination of a Latency-Reversing Agent With a Smac Mimetic Minimizes Secondary HIV-1 Infection in vitro” (Frontiers in Microbiology, 2018)
